Read-outs that look alike come from different tables or passages of the source.
Target: T1, XIAP-BIR3 (Homo sapiens, UniProt P98170)
T1 construct: 40 nM of XIAP-BIR3 for 15 min at RT
Experiment: XIAP BIR-3 fluorescence polarization binding assay
Settings: read-out: KD Range
Method: Following incubation, the polarization values (mP) were measured on a Victor^2V using a 485 nm excitation filter and a 520 nm emission filter. IC50 values were determined from the plot using nonlinear least-squares analysis using GraphPad Prism.

[1] = 5 nM AbuRPF-K(5-Fam)-NH2, 40 nM XIAP-BIR3, 15 min RT, pH 7.5

T1 sequence (P98170 241-356 limits assumed): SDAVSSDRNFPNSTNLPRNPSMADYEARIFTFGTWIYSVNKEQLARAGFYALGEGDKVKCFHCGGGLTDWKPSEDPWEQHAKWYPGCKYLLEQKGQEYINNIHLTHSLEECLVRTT

| SMILES | Kd [1] [nM] | Kd (Example 4 series) [nM] |
| --- | --- | --- |
| CN[C@@H](C)C(=O)N[C@H](C(=O)N1C[C@@H](O)C[C@H]1Cc1c(-c2ccc(-c3[nH]c4cc(F)ccc4c3C[C@@H]3C[C@H](O)CN3C(=O)[C@@H](NC(=O)[C@H](C)NC)C(C)C)cc2)[nH]c2cc(F)ccc12)C(C)C [Entry 29] | < 100 | – |
| CN[C@@H](C)C(=O)N[C@H](C(=O)N1C[C@@H](O)C[C@H]1Cc1c(-c2ccc(-c3[nH]c4cc(F)ccc4c3C[C@@H]3C[C@H](O)CN3C(=O)[C@@H](NC(=O)[C@H](C)NC)C(C)(C)C)cc2)[nH]c2cc(F)ccc12)C(C)(C)C [Entry 30] | < 100 | – |
| CN[C@@H](C)C(=O)N[C@H](C(=O)N1CCC[C@H]1Cc1c(-c2ccc(-c3[nH]c4cc(F)ccc4c3C[C@@H]3CCCN3C(=O)[C@@H](NC(=O)[C@H](C)NC)[C@@H](C)OCc3ccccc3)cc2)[nH]c2cc(F)ccc12)[C@@H](C)O [Entry 32] | < 100 | – |
| CN[C@@H](C)C(=O)N[C@H](C(=O)N1CCC[C@H]1Cc1c(-c2ccc(-c3[nH]c4cc(F)ccc4c3C[C@@H]3CCCN3C(=O)[C@@H](NC(=O)[C@H](C)NC)[C@@H](C)OCc3ccccc3)cc2)[nH]c2cc(F)ccc12)[C@@H](C)OCc1ccccc1 [Entry 33] | < 100 | – |
| CN[C@@H](C)C(=O)N[C@H](C(=O)N1C[C@@H](O)C[C@H]1Cc1c(-c2ccc(-c3[nH]c4ccccc4c3C[C@@H]3C[C@H](O)CN3C(=O)[C@@H](NC(=O)[C@H](C)NC)C(C)(C)C)cc2)[nH]c2ccccc12)C(C)(C)C [Entry 34] | < 100 | – |
| CN[C@@H](C)C(=O)N[C@H](C(=O)N1CCC[C@H]1Cc1c(-c2ccc(-c3[nH]c4ccc(F)cc4c3C[C@@H]3CCCN3C(=O)[C@@H](NC(=O)[C@H](C)NC)C(C)C)cc2)[nH]c2ccc(F)cc12)C(C)C [Entry 35] | < 100 | – |
| CN[C@@H](C)C(=O)N[C@H](C(=O)N1C[C@H](O)C[C@H]1Cc1c(-c2ccc(-c3[nH]c4ccccc4c3C[C@@H]3C[C@@H](O)CN3C(=O)[C@@H](NC(=O)[C@H](C)NC)C(C)(C)C)cc2)[nH]c2ccccc12)C(C)(C)C [Entry 36] | 100 to 1000 | – |
| CN[C@@H](C)C(=O)N[C@H](C(=O)N1C[C@H](O)C[C@H]1Cc1c(-c2ccc(-c3[nH]c4ccccc4c3C[C@@H]3C[C@@H](O)CN3C(=O)[C@@H](NC(=O)[C@H](C)NC)C(C)C)cc2)[nH]c2ccccc12)C(C)C [Entry 37] | 100 to 1000 | – |
| CN[C@@H](C)C(=O)N[C@H](C(=O)N1CCC[C@H]1Cc1c(-c2ccc(-c3[nH]c4cc(F)ccc4c3C[C@@H]3CCCN3C(=O)[C@@H](NC(=O)[C@H](C)NC)C3CCCCC3)cc2)[nH]c2cc(F)ccc12)C1CCCCC1 [Entry 38] | < 100 | – |
| C[C@H](N)C(=O)N[C@H](C(=O)N1CCC[C@H]1Cc1c(-c2ccc(-c3[nH]c4cc(F)ccc4c3C[C@@H]3CCCN3C(=O)[C@@H](NC(=O)[C@H](C)N)C3CCCCC3)cc2)[nH]c2cc(F)ccc12)C1CCCCC1 [Entry 39] | < 100 | – |
| CN[C@@H](C)C(=O)N[C@H](C(=O)N1C[C@@H](O)C[C@H]1Cc1c(-c2ccc(-c3[nH]c4ccc(F)cc4c3C[C@@H]3C[C@H](O)CN3C(=O)[C@@H](NC(=O)[C@H](C)NC)C(C)C)cc2)[nH]c2ccc(F)cc12)C(C)C [Entry 40] | 100 to 1000 | – |
| CN[C@@H](C)C(=O)N[C@H](C(=O)N1C[C@@H](O)C[C@H]1Cc1c(-c2ccc(-c3[nH]c4ccc(F)cc4c3C[C@@H]3C[C@H](O)CN3C(=O)[C@@H](NC(=O)[C@H](C)NC)C(C)(C)C)cc2)[nH]c2ccc(F)cc12)C(C)(C)C [Entry 41] | < 100 | – |
| CN[C@@H](C)C(=O)N[C@H](C(=O)N1CCC[C@H]1Cc1c(-c2ccc(-c3c(C[C@@H]4CCCN4C(=O)[C@@H](NC(=O)[C@H](C)N)[C@@H](C)O)c4ccc(F)cc4n3CCO)cc2)n(CCO)c2cc(F)ccc12)[C@@H](C)O [Entry 43] | < 100 | – |
| CN[C@@H](C)C(=O)N[C@H](C(=O)N1CCC[C@H]1Cc1c(-c2ccc(-c3c(C[C@@H]4CCCN4C(=O)[C@@H](NC(=O)[C@H](C)NC)[C@@H](C)O)c4ccc(F)cc4n3CCO)cc2)n(CCO)c2cc(F)ccc12)[C@@H](C)O [Entry 44] | < 100 | – |
| CN[C@@H](C)C(=O)N[C@H](C(=O)N1CCC[C@H]1Cc1c(-c2ccc(-c3c(C[C@@H]4CCCN4C(=O)[C@@H](NC(=O)[C@H](C)N)[C@@H](C)O)c4ccc(F)cc4n3CCOC(C)=O)cc2)n(CCOC(C)=O)c2cc(F)ccc12)[C@@H](C)O [Entry 45] | < 100 | – |
| CN[C@@H](C)C(=O)N[C@H](C(=O)N1CCC[C@H]1Cc1c(-c2ccc(-c3c(C[C@@H]4CCCN4C(=O)[C@@H](NC(=O)[C@H](C)NC)C(C)C)c4ccc(F)cc4n3CCO)cc2)n(CCO)c2cc(F)ccc12)C(C)C [Entry 46] | < 100 | – |
| CN[C@@H](C)C(=O)N[C@H](C(=O)N1CCC[C@H]1Cc1c(-c2ccc(-c3c(C[C@@H]4CCCN4C(=O)[C@@H](NC(=O)[C@H](C)NC)C(C)C)c4ccc(F)cc4n3CCOC(C)=O)cc2)n(CCOC(C)=O)c2cc(F)ccc12)C(C)C [Entry 47] | < 100 | – |
| CN[C@@H](C)C(=O)N[C@H](C(=O)N1CCC[C@H]1Cc1c(-c2ccc(-c3c(C[C@@H]4CCCN4C(=O)[C@@H](NC(=O)[C@H](C)NC)C(C)(C)C)c4ccc(F)cc4n3CCOC(C)=O)cc2)n(CCOC(C)=O)c2cc(F)ccc12)C(C)(C)C [Entry 49] | < 100 | – |
| CN[C@@H](C)C(=O)N[C@H](C(=O)N1CCC[C@H]1Cc1c(-c2ccc(-c3c(C[C@@H]4CCCN4C(=O)[C@@H](NC(=O)[C@H](C)NC)[C@@H](C)O)c4ccc(F)cc4n3CCOC)cc2)n(CCOC)c2cc(F)ccc12)[C@@H](C)O [Entry 50] | < 100 | – |

| SMILES | Kd [1] [nM] | Kd (Example 4 series) [nM] |
| --- | --- | --- |
| CN[C@@H](C)C(=O)N[C@H](C(=O)N1CCC[C@H]1Cc1c(-c2ccc(-c3c(C[C@@H]4CCCN4C(=O)[C@@H](NC(=O)[C@H](C)NC)C(C)(C)C)c4ccc(F)cc4n3CCOC)cc2)n(CCOC)c2cc(F)ccc12)C(C)(C)C [Entry 51] | < 100 | – |
| CN[C@@H](C)C(=O)N[C@H](C(=O)N1CCC[C@H]1Cc1c(-c2ccc(-c3c(C[C@@H]4CCCN4C(=O)[C@@H](NC(=O)[C@H](C)NC)C(C)C)c4ccc(F)cc4n3CCOC)cc2)n(CCOC)c2cc(F)ccc12)C(C)C [Entry 52] | < 100 | – |
| COCCn1c(-c2ccc(-c3c(C[C@@H]4CCCN4C(=O)[C@@H](NC(=O)[C@H](C)N)C(C)C)c4ccc(F)cc4n3CCOC)cc2)c(C[C@@H]2CCCN2C(=O)[C@@H](NC(=O)[C@H](C)N)C(C)C)c2ccc(F)cc21 [Entry 53] | < 100 | – |
| CN[C@@H](C)C(=O)N[C@H](C(=O)N1CCC[C@H]1Cc1c(-c2ccc(-c3c(C[C@@H]4CCCN4C(=O)[C@@H](NC(=O)[C@H](C)NC)C(C)(C)C)c4cc(F)ccc4n3CCO)cc2)n(CCO)c2ccc(F)cc12)C(C)(C)C [Entry 54] | < 100 | – |
| CN[C@@H](C)C(=O)N[C@H](C(=O)N1CCC[C@H]1Cc1c(-c2ccc(-c3c(C[C@@H]4CCCN4C(=O)[C@@H](NC(=O)[C@H](C)NC)C(C)C)c4cc(F)ccc4n3CCO)cc2)n(CCO)c2ccc(F)cc12)C(C)C [Entry 55] | < 100 | – |
| CN[C@@H](C)C(=O)N[C@H](C(=O)N1CCC[C@H]1Cc1c(-c2ccc(-c3c(C[C@@H]4CCCN4C(=O)[C@@H](NC(=O)[C@H](C)NC)[C@@H](C)O)c4cc(F)ccc4n3CCO)cc2)n(CCO)c2ccc(F)cc12)[C@@H](C)O [Entry 56] | < 100 | – |
| CN[C@@H](C)C(=O)N[C@H](C(=O)N1CCC[C@H]1Cc1c(-c2ccc(-c3c(C[C@@H]4CCCN4C(=O)[C@@H](NC(=O)[C@H](C)NC)C(C)C)c4ccc(F)cc4n3C)cc2)n(C)c2cc(F)ccc12)C(C)C [Entry 57] | < 100 | – |
| CN[C@@H](C)C(=O)N[C@H](C(=O)N1CCC[C@H]1Cc1c(-c2ccc(-c3c(C[C@@H]4CCCN4C(=O)[C@@H](NC(=O)[C@H](C)NC)[C@@H](C)O)c4ccc(F)cc4n3C)cc2)n(C)c2cc(F)ccc12)[C@@H](C)O [Entry 58] | < 100 | – |
| CN[C@@H](C)C(=O)N[C@H](C(=O)N1CCC[C@H]1Cc1c(-c2ccc(-c3c(C[C@@H]4CCCN4C(=O)[C@@H](NC(=O)[C@H](C)NC)C(C)(C)C)c4ccc(F)cc4n3C)cc2)n(C)c2cc(F)ccc12)C(C)(C)C [Entry 59] | < 100 | – |
| CN[C@@H](C)C(=O)N[C@H](C(=O)N1CCC[C@H]1Cc1c(-c2ccc(-c3c(C[C@@H]4CCCN4C(=O)[C@@H](NC(=O)[C@H](C)NC)C(C)C)c4ccc(F)cc4n3CCOC(C)=O)cc2)[nH]c2cc(F)ccc12)C(C)C [Entry 64] | < 100 | – |
| CN[C@@H](C)C(=O)N[C@H](C(=O)N1CCC[C@H]1Cc1c(-c2ccc(-c3c(C[C@@H]4CCCN4C(=O)[C@@H](NC(=O)[C@H](C)NC)C(C)C)c4ccc(F)cc4n3CCO)cc2)[nH]c2cc(F)ccc12)C(C)C [Entry 67] | < 100 | – |
| CN[C@H](C)C(=O)N[C@H](C(=O)N1CCC[C@H]1Cc1c(-c2ccc(-c3c(C[C@@H]4CCCN4C(=O)[C@@H](NC(=O)[C@@H](C)NC)C(C)(C)C)c4ccc(F)cc4n3CCO)cc2)[nH]c2cc(F)ccc12)C(C)(C)C [Entry 71] | 100 to 1000 | – |
| CNC(C)C(=O)NC(C(=O)N1CCCC1Cc1c(-c2[nH]c3cc(F)ccc3c2CC2CCCN2C(=O)C(NC(=O)C(C)NC)C(C)O)[nH]c2cc(F)ccc12)C(C)O (stereo not shown) [Entry 72] | – | < 100 |
| CN[C@@H](C)C(=O)N[C@H](C(=O)N1CCC[C@H]1Cc1c(-c2[nH]c3cc(F)ccc3c2C[C@@H]2CCCN2C(=O)[C@@H](NC(=O)[C@H](C)NC)C(C)C)[nH]c2cc(F)ccc12)C(C)C [Entry 73] | – | < 100 |
| CN[C@@H](C)C(=O)N[C@H](C(=O)N1CCC[C@H]1Cc1c(-c2[nH]c3cc(F)ccc3c2C[C@@H]2CCCN2C(=O)[C@@H](NC(=O)[C@H](C)N)C(C)C)[nH]c2cc(F)ccc12)C(C)C [Entry 74] | – | < 100 |
| CN[C@@H](C)C(=O)N[C@H](C(=O)N1CCC[C@H]1Cc1c(-c2[nH]c3ccc(F)cc3c2C[C@@H]2CCCN2C(=O)[C@@H](NC(=O)[C@H](C)NC)C(C)C)[nH]c2ccc(F)cc12)C(C)C [Entry 75] | – | < 100 |
| CN[C@@H](C)C(=O)NCC(=O)N1CCC[C@H]1Cc1c(-c2[nH]c3cc(F)ccc3c2C[C@@H]2CCCN2C(=O)CNC(=O)[C@H](C)NC)[nH]c2cc(F)ccc12 [Entry 76] | – | 100 to 1000 |
| CN[C@@H](C)C(=O)N[C@@H](C)C(=O)N1CCC[C@H]1Cc1c(-c2[nH]c3cc(F)ccc3c2C[C@@H]2CCCN2C(=O)[C@H](C)NC(=O)[C@H](C)NC)[nH]c2cc(F)ccc12 [Entry 77] | – | 100 to 1000 |

From patent US9187490B2, “Dimeric IAP inhibitors” (TetraLogic Pharmaceuticals Corporation, priority 2005, dated 2015)
